Columns and labels:
[1] = test system: Hep-G2 hepatic cancer cells; experiment: Cell viability, hexosaminidase assay, monotherapy; type: cell-based
Procedure: (§1) In brief, HCT-116, MiaPaCa-2 and Panc-1 cells were thawed in high glucose DMEM (Sigma D5796) with 10% heat-inactivated Foetal Calf Serum (FCS) (PAA, A15-101)). Hep-G2 and SK-Hep1 cells were thawed in Minimum Essential Media (MEM) (Sigma M2279) with 1% non-essential amino acids (Sigma M7145), 2 mM Glutamine (Sigma G7513) and 10% FCS. SK-OV-3 cells were thawed in McCoy's 5A medium (Sigma, M8403) with 15% FCS. All cells were passaged by washing once in cation-free dPBS (Sigma, D1408), and incubated for 3 minutes with trypsin ([0.5 μg/ml]/EDTA [0.2 μg/ml] (Sigma, T4174) in dPBS). Passage was completed at 37° C., and cells were transferred to the appropriate media. Prior to seeding at defined cell density, cells were recovered in medium, centrifuged and resuspended for counting.
(§2) To prepare cells for viability assays, cells were transferred into 96 well tissue culture plates (Cultek), and resuspended in 100 µL at the following densities: 10,000 cells/well (Hep-G2 and MiaPaCa-2), 5000 cells/well (Panc-1 and SK-OV-3) or 3000 cells/well (HCT-116). Following 24 hours of incubation, media was removed and replaced with 100 µL media spiked with QTX125 and the test chemotherapeutic agents. Stock solutions for the agents used in this study are shown below in Table 1. Cells were incubated for a further 72 hours before cell viability was assessed using both ALAMAR® and hexosaminidase assays.
(§3) For the hexosaminidase assay, media containing QTX125 and the test chemotherapeutic agents was removed, and cells were washed once with PBS. 60 μL of substrate solution (containing: 7.5 mM p-nitrophenol-N-acetyl-beta-D-glucosamide [Sigma N-9376], 0.1 M sodium citrate, pH 5.0 and 0.25% Triton X-100) was added to each well and cells were incubated at 37° C. for at least 1 hour. Incubating cells in this manner causes the substrate solution to become bright yellow, at which point 90 μL of developer solution (containing 50 mM Glycine pH 10.4 and 5 mM EDTA) was added to each well. Absorbance at 410 nm was recorded using a plate reader.
(§4) A number of appropriate control samples were included. First, absorbance values measured in reagent ‘blank’ wells (containing cell culture medium and colorimetric agent only) were subtracted from ‘test’ sample-containing wells. ‘Blank’ absorbance values were routinely between 5 and 10% of the values recorded in test wells. Absorbance values recorded in test wells were then compared against wells containing (i) cells stimulated with QTX125 only; (ii) cells stimulated with sorafenib, gemcitabine or bortezomib only and/or (iii) unstimulated cells, as appropriate.
(§5) Control values were normalised to 100% and percentage (%) viability was calculated. Data were used to plot log dose-response curves using a sigmoid dose-response (variable slope) equation. EC50 values were obtained using Equation 1, where ‘X’ is the logarithmic concentration; ‘Y’ is the response output and it is assumed that Y starts at bottom of the graph and reaches the top with an overall sigmoid shape.
(§6) Prior to assessing the oncolytic efficacy of QTX125-containing combination therapies, the oncolytic effect of each test agent was assessed in isolation. Dose-response curves were produced by serial dilution (1:1), thereby allowing monotherapy EC50 values to be calculated.
(§7) Chemotherapeutic agents were added to wells at a starting concentration of 100 μM. However, it was quickly determined that it was not possible to use this range for all chemotherapeutic agents tested. An optimization study was therefore completed to identify suitable maximum (‘high’) doses for each agent and in each individual cell line.

[2] = test system: MiaPaCa-2 pancreatic cancer cells; experiment: Cell viability, hexosaminidase assay, monotherapy; type: cell-based
Procedure: as §1, §2, §3, §4, §5, §6, §7

[3] = test system: Panc-1 pancreatic cancer cells; experiment: Cell viability, hexosaminidase assay, monotherapy; type: cell-based
Procedure: as §1, §2, §3, §4, §5, §6, §7

[4] = test system: SK-OV-3 ovarian cancer cells; experiment: Cell viability, hexosaminidase assay, monotherapy; type: cell-based
Procedure: as §1, §2, §3, §4, §5, §6, §7

[5] = target: T1, HDAC 6 (Homo sapiens, UniProt Q9UBN7); conditions: cited from earlier work
T1 sequence (Q9UBN7 1-1215): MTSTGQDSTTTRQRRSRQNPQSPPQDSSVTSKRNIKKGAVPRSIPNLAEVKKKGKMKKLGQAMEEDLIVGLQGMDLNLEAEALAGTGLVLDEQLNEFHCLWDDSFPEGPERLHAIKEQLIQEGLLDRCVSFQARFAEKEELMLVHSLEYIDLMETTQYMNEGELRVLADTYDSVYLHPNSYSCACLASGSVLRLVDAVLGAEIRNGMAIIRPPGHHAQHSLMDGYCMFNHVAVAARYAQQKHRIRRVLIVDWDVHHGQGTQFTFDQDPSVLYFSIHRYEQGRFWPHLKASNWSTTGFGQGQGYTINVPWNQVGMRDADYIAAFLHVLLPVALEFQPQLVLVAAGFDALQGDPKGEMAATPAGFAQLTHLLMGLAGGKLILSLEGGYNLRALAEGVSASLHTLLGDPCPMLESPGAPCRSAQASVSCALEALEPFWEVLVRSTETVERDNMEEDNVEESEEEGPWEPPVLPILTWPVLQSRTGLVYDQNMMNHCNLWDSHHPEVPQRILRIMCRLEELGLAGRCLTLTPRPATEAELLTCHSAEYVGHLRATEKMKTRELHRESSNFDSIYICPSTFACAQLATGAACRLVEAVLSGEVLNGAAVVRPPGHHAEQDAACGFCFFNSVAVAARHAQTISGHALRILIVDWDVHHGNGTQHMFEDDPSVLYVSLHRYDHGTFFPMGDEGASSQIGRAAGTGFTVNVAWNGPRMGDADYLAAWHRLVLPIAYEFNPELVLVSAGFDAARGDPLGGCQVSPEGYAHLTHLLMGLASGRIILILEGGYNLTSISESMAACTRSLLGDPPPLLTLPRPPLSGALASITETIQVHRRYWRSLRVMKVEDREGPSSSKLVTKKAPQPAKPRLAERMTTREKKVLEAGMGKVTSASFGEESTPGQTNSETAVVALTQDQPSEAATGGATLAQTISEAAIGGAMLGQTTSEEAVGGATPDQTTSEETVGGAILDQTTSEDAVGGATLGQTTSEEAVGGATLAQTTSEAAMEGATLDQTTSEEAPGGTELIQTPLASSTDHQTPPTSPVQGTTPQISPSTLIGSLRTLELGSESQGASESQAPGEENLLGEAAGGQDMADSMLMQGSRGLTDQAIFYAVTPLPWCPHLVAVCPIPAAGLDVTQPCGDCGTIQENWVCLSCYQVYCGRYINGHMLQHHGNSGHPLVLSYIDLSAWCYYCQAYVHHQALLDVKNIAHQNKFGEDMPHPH

[6] = 72 hours of high-dose monotherapy (Table 2: QTX125 100, sorafenib 100, gemcitabine 100, bortezomib 1 μM)
[7] = Homo sapiens, 72 h, read-out: EC50 dose of monotherapy

Question: For `O=C(NO)c1ccc(CNC(=O)c2[nH]c(-c3ccc(O)cc3)cc2-c2ccoc2)cc1` [QTX125, 3-(3-Furyl)-N-{4-[(hydroxyamino)carbonyl]benzyl}-5-(4-hydroxyphenyl)-1 Hpyrrole-2-carboxamide], which “percentage (%) cell viabilities” value ([1]; 72 hours of high-dose monotherapy (Table 2: QTX125 5, sorafenib 100, gemcitabine 100, bortezomib 1 μM)) is on record?
Answer: 2.1%

Question: And the EC50 ([1]; Homo sapiens, HepG2, 72 h, read-out: EC50 dose of monotherapy)?
Answer: 3.3 ± 0.4 µM

Question: What about the “reduction of the population of viable cells” value ([1]; high-dose monotherapy, 72 hours) of the same molecule?
Answer: ~98%

Question: What about the “percentage (%) cell viabilities” value [2, 6] of the same molecule?
Answer: 7.3%

Question: And the EC50 ([2]; Homo sapiens, MIA PaCa-2, 72 h, read-out: EC50 dose of monotherapy)?
Answer: 1.5 ± 0.2 µM

Question: And the “percentage (%) cell viabilities” value [3, 6]?
Answer: 3.9%

Question: And the EC50 [3, 7]?
Answer: 3.6 ± 0.5 µM

Question: What about the “percentage (%) cell viabilities” value ([4]; 72 hours of high-dose monotherapy (Table 2: QTX125 10, sorafenib 100, gemcitabine 10, bortezomib 1 μM)) of the same molecule?
Answer: 5.0%

Question: What about the EC50 [4, 7] of the same molecule?
Answer: 3.6 ± 0.4 µM

Question: And the “HDAC 6 inhibition” value [5]?
Answer: highly selective and highly potent
